From patent publication US9707305B2, “Formulas for diagnosing and treating hormone-dependent cancers and cancers of the organs responsible for steroid hormone synthesis” (Commissariat à l'énergie atomique et aux énergies …, priority 2011, dated 2017)

Columns and labels:
[1] = Biodistribution of the nano-emulsion of Example 1.1 in male mice (Tables 15 to 21); format: in vivo; settings: FVB male mouse
Protocol: (§1) In the following examples, the radioactivity was counted with the TRiCarb Counter (Ref: Packard, Liquid Scintillation Analyzers; Models 2200CA).
Fluobeam 700 (Fluoptics) is the apparatus with which the whole of the organs from the biodistribution were analyzed in fluorescence as well as the one with which the biodistribution kinetics of the nano-emulsions were established in vivo. This imaging system allows viewing of the fluorescence in spectral bands from 700 to 850 nm for a 650 nm excitation. The apparatus consists of an electric case containing the laser of class 3B, its power supply and an optical head containing the CCD camera. […]

[2] = Biodistribution of the mixture of three free tracers (not formulated as nano-emulsion), comparative; format: in vivo; settings: FVB female mouse
Protocol: as §1
Fluobeam 700 (Fluoptics) is the apparatus with which the whole of the organs from the biodistribution were analyzed in fluorescence as well as the one with which the biodistribution kinetics of the nano-emulsions were established in vivo. This imaging system allows viewing of the fluorescence in spectral bands from 700 to 850 nm for a 650 nm excitation. The apparatus consists of an electric case containing the laser of class 3B, its power supply and an optical head containing the CCD camera.
As a comparison, a mixture of three tracers ([3H]CHE, [14C]CO and DiD) (not formulated as a nano-emulsion) was injected in order to observe the distribution of the tracers in the absence of droplets being used as a distribution carrier.

[3] = 2 h after injection of free tracers (not nano-emulsion)
[4] = 6 h after injection of free tracers (not nano-emulsion)
[5] = 16 h after injection of free tracers (not nano-emulsion)
[6] = 24 h after injection of free tracers (not nano-emulsion)

CCCCCCCCCCCCCCCCCCN1/C(=C/C=C/C=C/C2=[N+](CCCCCCCCCCCCCCCCCC)c3ccccc3C2(C)C)C(C)(C)c2ccccc21.[O-][Cl+3]([O-])([O-])[O-] [DiD, l,r-dioctadécyl-3,3,3′,3′-tetramethylindodicarbocyanine (DiD) perchlorate]
fluorescence intensity in Adrenal gland ([1]; 2 h): 779.1
fluorescence intensity in Adrenal gland ([1]; 4 h): 536.1
fluorescence intensity in Adrenal gland ([1]; 6 h): 721.9
fluorescence intensity in Adrenal gland ([1]; 16 h): 1086.2
fluorescence intensity in Adrenal gland ([1]; 24 h): 1105.9
fluorescence intensity in Adrenal gland ([1]; 48 h): 783.7
fluorescence intensity in Adrenal gland ([1]; 72 h): 717.3
fluorescence intensity in Brain ([1]; 2 h): 186.5
fluorescence intensity in Brain ([1]; 4 h): 150.6
fluorescence intensity in Brain ([1]; 6 h): 235.9
fluorescence intensity in Brain ([1]; 16 h): 134.7
fluorescence intensity in Brain ([1]; 24 h): 109.3
fluorescence intensity in Brain ([1]; 48 h): 160.4
fluorescence intensity in Brain ([1]; 72 h): 14.8
fluorescence intensity in Fat ([1]; 2 h): 184.0
fluorescence intensity in Fat ([1]; 4 h): 128.3
fluorescence intensity in Fat ([1]; 6 h): 221.1
fluorescence intensity in Fat ([1]; 16 h): 117.0
fluorescence intensity in Fat ([1]; 24 h): 142.1
fluorescence intensity in Fat ([1]; 48 h): 185.1
fluorescence intensity in Fat ([1]; 72 h): 78.0
fluorescence intensity in Heart ([1]; 2 h): 427.6
fluorescence intensity in Heart ([1]; 4 h): 306.9
fluorescence intensity in Heart ([1]; 6 h): 253.8
fluorescence intensity in Heart ([1]; 16 h): 281.5
fluorescence intensity in Heart ([1]; 24 h): 239.7
fluorescence intensity in Heart ([1]; 48 h): 178.1
fluorescence intensity in Heart ([1]; 72 h): 142.3
fluorescence intensity in Intestine ([1]; 2 h): 392.1
fluorescence intensity in Intestine ([1]; 4 h): 336.2
fluorescence intensity in Intestine ([1]; 6 h): 378.0
fluorescence intensity in Intestine ([1]; 16 h): 640.4
fluorescence intensity in Intestine ([1]; 24 h): 621.0
fluorescence intensity in Intestine ([1]; 48 h): 381.6
fluorescence intensity in Intestine ([1]; 72 h): 267.8
fluorescence intensity in Kidney ([1]; 2 h): 601.1
fluorescence intensity in Kidney ([1]; 4 h): 505.0
fluorescence intensity in Kidney ([1]; 6 h): 427.7
fluorescence intensity in Kidney ([1]; 16 h): 343.0
fluorescence intensity in Kidney ([1]; 24 h): 323.1
fluorescence intensity in Kidney ([1]; 48 h): 168.3
fluorescence intensity in Kidney ([1]; 72 h): 160.3
fluorescence intensity in Liver ([1]; 2 h): 831.9
fluorescence intensity in Liver ([1]; 4 h): 813.0
fluorescence intensity in Liver ([1]; 6 h): 847.4
fluorescence intensity in Liver ([1]; 16 h): 1157.2
fluorescence intensity in Liver ([1]; 24 h): 1152.7
fluorescence intensity in Liver ([1]; 48 h): 988.2
fluorescence intensity in Liver ([1]; 72 h): 648.0
fluorescence intensity in Lung ([1]; 2 h): 559.9
fluorescence intensity in Lung ([1]; 4 h): 446.4
fluorescence intensity in Lung ([1]; 6 h): 426.0
fluorescence intensity in Lung ([1]; 16 h): 423.5
fluorescence intensity in Lung ([1]; 24 h): 406.0
fluorescence intensity in Lung ([1]; 48 h): 346.5
fluorescence intensity in Lung ([1]; 72 h): 286.6
fluorescence intensity in Muscle ([1]; 2 h): 176.7
fluorescence intensity in Muscle ([1]; 4 h): 152.3
fluorescence intensity in Muscle ([1]; 6 h): 169.3
fluorescence intensity in Muscle ([1]; 16 h): 281.9
fluorescence intensity in Muscle ([1]; 24 h): 144.9
fluorescence intensity in Muscle ([1]; 48 h): 131.7
fluorescence intensity in Muscle ([1]; 72 h): 109.2
fluorescence intensity in Pancreas ([1]; 2 h): 255.1
fluorescence intensity in Pancreas ([1]; 4 h): 295.0
fluorescence intensity in Pancreas ([1]; 6 h): 347.0
fluorescence intensity in Pancreas ([1]; 16 h): 332.6
fluorescence intensity in Pancreas ([1]; 24 h): 268.9
fluorescence intensity in Pancreas ([1]; 48 h): 266.2
fluorescence intensity in Pancreas ([1]; 72 h): 160.6
fluorescence intensity in Salivary gland ([1]; 2 h): 310.0
fluorescence intensity in Salivary gland ([1]; 4 h): 297.8
fluorescence intensity in Salivary gland ([1]; 6 h): 488.5
fluorescence intensity in Salivary gland ([1]; 16 h): 838.8
fluorescence intensity in Salivary gland ([1]; 24 h): 501.1
fluorescence intensity in Salivary gland ([1]; 48 h): 489.7
fluorescence intensity in Salivary gland ([1]; 72 h): 430.2
fluorescence intensity in Seminal gland ([1]; 4 h): 179.5
fluorescence intensity in Seminal gland ([1]; 6 h): 261.0
fluorescence intensity in Seminal gland ([1]; 16 h): 163.0
fluorescence intensity in Seminal gland ([1]; 24 h): 170.6
fluorescence intensity in Seminal gland ([1]; 48 h): 166.7
fluorescence intensity in Seminal gland ([1]; 72 h): 74.4
fluorescence intensity in Seminal glands ([1]; Seminal glands, 2 h): 175.3
fluorescence intensity in Spleen ([1]; 2 h): 455.7
fluorescence intensity in Spleen ([1]; 4 h): 407.4
fluorescence intensity in Spleen ([1]; 6 h): 488.6
fluorescence intensity in Spleen ([1]; 16 h): 373.3
fluorescence intensity in Spleen ([1]; 24 h): 638.0
fluorescence intensity in Spleen ([1]; 48 h): 656.7
fluorescence intensity in Spleen ([1]; 72 h): 278.0
fluorescence intensity in Testicle ([1]; 2 h): 639.9
fluorescence intensity in Testicle ([1]; 4 h): 470.9
fluorescence intensity in Testicle ([1]; 6 h): 723.1
fluorescence intensity in Testicle ([1]; 16 h): 525.4
fluorescence intensity in Testicle ([1]; 48 h): 648.6
fluorescence intensity in Testicle ([1]; 72 h): 481.2
fluorescence intensity, Adrenal glands (MEAN) [2, 3]: 730.45 photons per pixel, reduced to
fluorescence intensity, Brain (MEAN) [2, 3]: 439.56 photons per pixel, reduced to
fluorescence intensity, Fat (MEAN) [2, 3]: 280.30 photons per pixel, reduced to
fluorescence intensity, Heart (MEAN) [2, 3]: 487.37 photons per pixel, reduced to
fluorescence intensity, Intestine (MEAN) [2, 3]: 451.58 photons per pixel, reduced to
fluorescence intensity, Kidney (MEAN) [2, 3]: 862.35 photons per pixel, reduced to
fluorescence intensity, Liver (MEAN) [2, 3]: 2477.20 photons per pixel, reduced to
fluorescence intensity, Lung (MEAN) [2, 3]: 848.08 photons per pixel, reduced to
fluorescence intensity, Muscle (MEAN) [2, 3]: 211.84 photons per pixel, reduced to
fluorescence intensity, Ovary (MEAN) [2, 3]: 954.70 photons per pixel, reduced to
fluorescence intensity, Pancreas (MEAN) [2, 3]: 466.58 photons per pixel, reduced to
fluorescence intensity, Salivary gland (MEAN) [2, 3]: 399.58 photons per pixel, reduced to
fluorescence intensity, Spleen (MEAN) [2, 3]: 1162.07 photons per pixel, reduced to
fluorescence intensity, Uterus (MEAN) [2, 3]: 694.28 photons per pixel, reduced to
fluorescence intensity, Adrenal glands (MEAN) [2, 4]: 208.14 photons per pixel, reduced to
fluorescence intensity, Brain (MEAN) [2, 4]: 116.17 photons per pixel, reduced to
fluorescence intensity, Fat (MEAN) [2, 4]: 234.61 photons per pixel, reduced to
fluorescence intensity, Heart (MEAN) [2, 4]: 346.63 photons per pixel, reduced to
fluorescence intensity, Intestine (MEAN) [2, 4]: 363.09 photons per pixel, reduced to
fluorescence intensity, Kidney (MEAN) [2, 4]: 573.78 photons per pixel, reduced to
fluorescence intensity, Liver (MEAN) [2, 4]: 2293.21 photons per pixel, reduced to
fluorescence intensity, Lung (MEAN) [2, 4]: 433.52 photons per pixel, reduced to
fluorescence intensity, Muscle (MEAN) [2, 4]: 108.34 photons per pixel, reduced to
fluorescence intensity, Ovary (MEAN) [2, 4]: 250.27 photons per pixel, reduced to
fluorescence intensity, Pancreas (MEAN) [2, 4]: 191.73 photons per pixel, reduced to
fluorescence intensity, Salivary gland (MEAN) [2, 4]: 232.98 photons per pixel, reduced to
fluorescence intensity, Spleen (MEAN) [2, 4]: 3224.12 photons per pixel, reduced to
fluorescence intensity, Uterus (MEAN) [2, 4]: 506.03 photons per pixel, reduced to
fluorescence intensity, Adrenal gland (MEAN) [2, 5]: 1683.36 photons per pixel, reduced to
fluorescence intensity, Brain (MEAN) [2, 5]: −24.23 photons per pixel, reduced to
fluorescence intensity, Fat (MEAN) [2, 5]: 295.69 photons per pixel, reduced to
fluorescence intensity, Heart (MEAN) [2, 5]: 186.72 photons per pixel, reduced to
fluorescence intensity, Intestine (MEAN) [2, 5]: 505.69 photons per pixel, reduced to
fluorescence intensity, Kidney (MEAN) [2, 5]: 382.29 photons per pixel, reduced to
fluorescence intensity, Liver (MEAN) [2, 5]: 2954.59 photons per pixel, reduced to
fluorescence intensity, Lung (MEAN) [2, 5]: 370.94 photons per pixel, reduced to
fluorescence intensity, Muscle (MEAN) [2, 5]: 93.88 photons per pixel, reduced to
fluorescence intensity, Ovary (MEAN) [2, 5]: 729.53 photons per pixel, reduced to
fluorescence intensity, Pancreas (MEAN) [2, 5]: 101.87 photons per pixel, reduced to
fluorescence intensity, Salivary gland (MEAN) [2, 5]: 271.01 photons per pixel, reduced to
fluorescence intensity, Spleen (MEAN) [2, 5]: 3403.29 photons per pixel, reduced to
fluorescence intensity, Uterus (MEAN) [2, 5]: 665.40 photons per pixel, reduced to
fluorescence intensity, Adrenal gland (MEAN) [2, 6]: 653.68 photons per pixel, reduced to
fluorescence intensity, Brain (MEAN) [2, 6]: 57.68 photons per pixel, reduced to
fluorescence intensity, Fat (MEAN) [2, 6]: 344.99 photons per pixel, reduced to
fluorescence intensity, Heart (MEAN) [2, 6]: 285.67 photons per pixel, reduced to
fluorescence intensity, Intestine (MEAN) [2, 6]: 354.94 photons per pixel, reduced to
fluorescence intensity, Kidney (MEAN) [2, 6]: 397.90 photons per pixel, reduced to
fluorescence intensity, Liver (MEAN) [2, 6]: 2663.45 photons per pixel, reduced to
fluorescence intensity, Lung (MEAN) [2, 6]: 300.36 photons per pixel, reduced to
fluorescence intensity, Muscle (MEAN) [2, 6]: 289.03 photons per pixel, reduced to
fluorescence intensity, Ovary (MEAN) [2, 6]: 989.32 photons per pixel, reduced to
fluorescence intensity, Pancreas (MEAN) [2, 6]: 158.45 photons per pixel, reduced to
fluorescence intensity, Salivary gland (MEAN) [2, 6]: 187.28 photons per pixel, reduced to
fluorescence intensity, Spleen (MEAN) [2, 6]: 3880.70 photons per pixel, reduced to
fluorescence intensity, Uterus (MEAN) [2, 6]: 636.69 photons per pixel, reduced to
accumulation in the liver and the spleen, tracer DiD alone ([2]; Tables 2 to 5 (2 to 24 h), free tracer): Strong accumulation
